# Assay results reported in article PMC7862291, “Full-length in meso structure and mechanism of rat kynurenine 3-monooxygenase inhibition” (Communications Biology, 2021).
# Values joined by “and” are separate entries in the source; they are usually repeats but may differ in a detail not shown here. Equal entries are not always repeated.
# Assays:
# hKMO = biological target: T1, hKMO (Homo sapiens, UniProt O15229); test: Human KMO enzyme (cell-free) assay, NADPH consumption by absorbance; assay type: biochemical
# T1 construct: purchased Origene
# Experimental: (§1) Human KMO was purchased from Origene and used to assay compounds. Full-length Rat-KMO purified for crystallisation was used to assay compounds. Full-length Rat-KMO-expressing membranes were used for mutant assays (Fig. 4b) only. […] Images were taken using Odyssey CLX (LI-COR Biosciences) and quantified using ImageStudio2.0 (LI-COR Biosciences) software.
# (§2) Test compounds were dissolved in DMSO and diluted with assay buffer containing 50 mM HEPES, 2 mM MgCl2, 0.5 mM EGTA, 1 mM DTT, 0.05% Tween20 and 0.005% of antiform SI (pH = about 7.9) to prepare a 4% DMSO solution. […] After 5 min of pre-incubation, reactions were started by adding 10 μL of substrate solution containing 2.4 mM kynurenine and 0.6 mM NADPH. Reactions were run for 90 min at 30 °C, then terminated by adding 5 μL of stop buffer (40 mM maleimide, 2 mM WST-9 and 0.1 mM 1-methoky PMS in water). […] Liposomal assays were performed in the same manner except that the composition of the assay buffer was changed (phosphate-buffered saline, 2 mM MgCl2, 1 mM DTT, 0.05% Tween 20).
# (§3) Compound assays were analysed and plotted on graphs using Prism (GraphPad Software Inc. San Diego, CA, USA).
# Rat KMO = biological target: T2, Rat KMO (Rattus norvegicus, UniProt O88867); test: Rat KMO enzyme (cell-free) assay, NADPH consumption by absorbance; assay type: biochemical
# T2 construct: The GST-tagged full-length KMO (1-478) baculovirus vector contained a thrombin cleavage site; GST (thrombin cleavage site between GST and KMO) (N, cleaved yes); made in house; host or cells: Spodoptera frugiperda (Sf9), baculovirus
# Experimental: as §1, §2, §3
# [1] = biological target: T3, HEK293 cells stably expressing human KMO (Homo sapiens, UniProt O15229); test: Cell-based human KMO inhibition assay (LC/MS of 3-hydroxykynurenine)
# T3 construct: expressed in transfected cells
# Experimental: (§4) HEK293 cells stably expressing human or rat KMO were maintained in DMEM containing 10% fetal bovine serum, 50 units/mL penicillin, 50 μg/mL streptomycin and 0.2 mg⁄mL zeocine. […] After 2 overnights, the medium was replaced with 10 μL/well of assay buffer (1 × HBSS containing 20 mM HEPES). Ten microliters per well of the diluted test compounds (final, 0–30 μM, 0.3% DMSO) were added to the respective wells. After ~30 min of pre-incubation at 37 °C, reactions were started by adding 20 μL of substrate solution containing 0.2 mM kynurenine. Reactions were run for 2 h at 37 °C, the assay buffer was discarded and the plate was immediately frozen and stored at −30 °C until LC/MS analysis.
# (§5) An 80 µL volume of cold acetonitrile with 2% formic acid was added to the cell pellet in a 384-well plate and centrifuged at 3000 rpm for 10 min at 4 °C. A 40 µL volume of the supernatant was transferred to a new 384-well plate and evaporated to dryness under nitrogen gas at 45 °C. The residue was reconstituted in 100 µL of acetonitrile/water (10:90, v/v) with 0.1% formic acid, and 1 µL was injected into the LC-MS/MS system.
# (§6) LC/MS/MS was performed on a Shimadzu UFLC Nexera X2 (Shimadzu Corporation, Japan) and an QTRAP® 5500 LC-MS/MS System (SCIEX, Framingham, USA). Chromatographic separation was performed using an Allure PFP Propyl analytical column (5 µm, 2.1 × 100 mm) maintained at 50 °C. The autosampler temperature was set at 15 °C. The mobile phase consisted of formic acid/water/acetonitrile/methanol (0.5/500/250/250, v/v/v/v) and the flow rate was set at 0.3 mL/min. 3-hydroxykynurenine was eluted from the LC column at a retention time of 1.2 min. The MS system was operated using electrospray ionization (ESI) in positive mode. The optimum conditions were curtain gas, 20 psi; ion spray voltage, 5500 V; heated nebulizer temperature (TEM), 700 °C; nebulizing gas (GS1), 70 psi; and heater gas (GS2), 70 psi. […] Analyst® software (SCIEX, Framingham, USA) was used for system control and MultiQuant™ Software (SCIEX, Framingham, USA) was used for data analysis.
# as §3
# [2] = biological target: T4, HEK293 cells stably expressing rat KMO (Rattus norvegicus, UniProt O88867); test: Cell-based rat KMO inhibition assay (LC/MS of 3-hydroxykynurenine)
# T4 construct: expressed in transfected cells
# Experimental: as §4, §5, §6, §3
# T4 sequence (O88867 whole entry): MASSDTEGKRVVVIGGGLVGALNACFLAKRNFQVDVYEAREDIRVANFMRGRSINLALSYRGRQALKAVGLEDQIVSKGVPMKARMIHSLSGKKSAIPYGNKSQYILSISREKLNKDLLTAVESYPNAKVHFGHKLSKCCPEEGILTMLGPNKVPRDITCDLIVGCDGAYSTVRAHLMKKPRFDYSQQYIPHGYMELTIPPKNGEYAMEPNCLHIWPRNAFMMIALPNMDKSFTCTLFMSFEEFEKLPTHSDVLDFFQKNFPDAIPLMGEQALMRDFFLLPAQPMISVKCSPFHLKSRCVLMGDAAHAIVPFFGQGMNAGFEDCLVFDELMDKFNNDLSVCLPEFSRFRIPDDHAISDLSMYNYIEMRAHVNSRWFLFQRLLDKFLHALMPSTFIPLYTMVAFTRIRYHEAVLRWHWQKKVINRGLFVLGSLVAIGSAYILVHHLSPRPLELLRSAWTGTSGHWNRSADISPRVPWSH
# T2 sequence (O88867 whole entry): as above
# T3 sequence (O15229 whole entry): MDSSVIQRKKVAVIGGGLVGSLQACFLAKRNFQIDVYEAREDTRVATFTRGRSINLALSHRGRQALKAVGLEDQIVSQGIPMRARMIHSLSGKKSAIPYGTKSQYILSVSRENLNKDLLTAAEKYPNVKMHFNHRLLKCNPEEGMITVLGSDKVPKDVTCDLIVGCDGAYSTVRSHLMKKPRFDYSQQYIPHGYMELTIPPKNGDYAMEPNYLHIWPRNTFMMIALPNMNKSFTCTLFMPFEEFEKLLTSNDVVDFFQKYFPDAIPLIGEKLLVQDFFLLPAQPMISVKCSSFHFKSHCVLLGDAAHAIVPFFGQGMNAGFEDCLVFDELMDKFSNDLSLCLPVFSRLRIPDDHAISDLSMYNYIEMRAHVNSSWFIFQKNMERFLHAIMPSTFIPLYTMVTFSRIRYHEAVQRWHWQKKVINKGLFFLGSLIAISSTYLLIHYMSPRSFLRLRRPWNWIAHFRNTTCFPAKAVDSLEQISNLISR
# T1 sequence (O15229 whole entry): as above
smiles,measurement,setting,value
Cc1cnn(-c2cccc(C(=O)O)c2)c1-c1ccccc1 [Compound 1],IC50,"hKMO; cell-free enzyme assay, high kynurenine, read-out: Human KMO IC50",160 nM
same,"inhibition rate, Hs-KMO cell-free assay (Figure 1A source data)","hKMO; conc 0.03 μM, duplicates",13.527%
same,inhibition at 0.03 µM,"hKMO; conc 0.03 μM, duplicates, read-out: inhibition rate, Hs-KMO cell-free assay (Figure 1A source data)",15.1%
same,"inhibition rate, Hs-KMO cell-free assay (Figure 1A source data)","hKMO; conc 0.1 μM, duplicates",37.639%
same,inhibition at 0.1 µM,"hKMO; conc 0.1 μM, duplicates, read-out: inhibition rate, Hs-KMO cell-free assay (Figure 1A source data)",41.4%
same,"inhibition rate, Hs-KMO cell-free assay (Figure 1A source data)","hKMO; conc 0.3 μM, duplicates",65.813%
same,inhibition at 0.3 µM,"hKMO; conc 0.3 μM, duplicates, read-out: inhibition rate, Hs-KMO cell-free assay (Figure 1A source data)",66.6%
same,"inhibition rate, Hs-KMO cell-free assay (Figure 1A source data)","hKMO; conc 1 μM, duplicates",77.715%
same,inhibition at 1 µM,"hKMO; conc 1 μM, duplicates, read-out: inhibition rate, Hs-KMO cell-free assay (Figure 1A source data)",82.9%
same,"inhibition rate, Hs-KMO cell-free assay (Figure 1A source data)","hKMO; conc 3 μM, duplicates",95.862%
same,inhibition at 3 µM,"hKMO; conc 3 μM, duplicates, read-out: inhibition rate, Hs-KMO cell-free assay (Figure 1A source data)",99.1%
same,"inhibition rate, Hs-KMO cell-free assay (Figure 1A source data)","hKMO; conc 10 μM, duplicates",92.894%
same,inhibition at 10 µM,"hKMO; conc 10 μM, duplicates, read-out: inhibition rate, Hs-KMO cell-free assay (Figure 1A source data)",97.2%
same,"inhibition rate, Hs-KMO cell-free assay (Figure 1A source data)","hKMO; conc 30 μM, duplicates",103.928%
same,inhibition at 30 µM,"hKMO; conc 30 μM, duplicates, read-out: inhibition rate, Hs-KMO cell-free assay (Figure 1A source data)",104%
same,"inhibition rate, Hs-KMO cell-free assay (Figure 1A source data)","hKMO; conc 100 μM, duplicates",96.422%
same,inhibition at 100 µM,"hKMO; conc 100 μM, duplicates, read-out: inhibition rate, Hs-KMO cell-free assay (Figure 1A source data)",100%
same,IC50,"Rat KMO; cell-free enzyme assay, high kynurenine",570 nM
same,"inhibition rate, Rat-KMO cell-free assay (Figure 1B source data)","Rat KMO; conc 0.03 μM, duplicates",4.679% and 12.234%
same,"inhibition rate, Rat-KMO cell-free assay (Figure 1B source data)","Rat KMO; conc 0.1 μM, duplicates",19.657%
same,inhibition at 0.1 µM,"Rat KMO; conc 0.1 μM, duplicates, read-out: inhibition rate, Rat-KMO cell-free assay (Figure 1B source data)",16%
same,"inhibition rate, Rat-KMO cell-free assay (Figure 1B source data)","Rat KMO; conc 0.3 μM, duplicates",35.882%
same,inhibition at 0.3 µM,"Rat KMO; conc 0.3 μM, duplicates, read-out: inhibition rate, Rat-KMO cell-free assay (Figure 1B source data)",39.2%
same,"inhibition rate, Rat-KMO cell-free assay (Figure 1B source data)","Rat KMO; conc 1 μM, duplicates",64.963%
same,inhibition at 1 µM,"Rat KMO; conc 1 μM, duplicates, read-out: inhibition rate, Rat-KMO cell-free assay (Figure 1B source data)",63.5%
same,"inhibition rate, Rat-KMO cell-free assay (Figure 1B source data)","Rat KMO; conc 3 μM, duplicates",78.325%
same,inhibition at 3 µM,"Rat KMO; conc 3 μM, duplicates, read-out: inhibition rate, Rat-KMO cell-free assay (Figure 1B source data)",81.5%
same,"inhibition rate, Rat-KMO cell-free assay (Figure 1B source data)","Rat KMO; conc 10 μM, duplicates",86.225%
same,inhibition at 10 µM,"Rat KMO; conc 10 μM, duplicates, read-out: inhibition rate, Rat-KMO cell-free assay (Figure 1B source data)",85.2%
same,"inhibition rate, Rat-KMO cell-free assay (Figure 1B source data)","Rat KMO; conc 30 μM, duplicates",94.681%
same,inhibition at 30 µM,"Rat KMO; conc 30 μM, duplicates, read-out: inhibition rate, Rat-KMO cell-free assay (Figure 1B source data)",95.7%
same,"inhibition rate, Rat-KMO cell-free assay (Figure 1B source data)","Rat KMO; conc 100 μM, duplicates",91.129%
same,inhibition at 100 µM,"Rat KMO; conc 100 μM, duplicates, read-out: inhibition rate, Rat-KMO cell-free assay (Figure 1B source data)",88.8%
same,inhibition at 0.1 µM,"[1]; HEK293, conc 0.1 μM, duplicates, read-out: inhibition rate, Hs-KMO cellular assay (Figure 1C source data)",17%
same,inhibition at 0.3 µM,"[1]; HEK293, conc 0.3 μM, duplicates, read-out: inhibition rate, Hs-KMO cellular assay (Figure 1C source data)",33.6%
same,inhibition at 1 µM,"[1]; HEK293, conc 1 μM, duplicates, read-out: inhibition rate, Hs-KMO cellular assay (Figure 1C source data)",60.2%
same,inhibition at 3 µM,"[1]; HEK293, conc 3 μM, duplicates, read-out: inhibition rate, Hs-KMO cellular assay (Figure 1C source data)",88.1%
same,inhibition at 10 µM,"[1]; HEK293, conc 10 μM, duplicates, read-out: inhibition rate, Hs-KMO cellular assay (Figure 1C source data)",100%
same,inhibition at 30 µM,"[1]; HEK293, conc 30 μM, duplicates, read-out: inhibition rate, Hs-KMO cellular assay (Figure 1C source data)",104%
same,IC50,"[1]; HEK293 cells expressing human KMO, LC/MS, read-out: Human cell-based assay IC50",580 nM
same,"inhibition rate, Hs-KMO cellular assay (Figure 1C source data)","[1]; conc 0.03 μM, duplicates",1.868% and 10.412%
same,"inhibition rate, Hs-KMO cellular assay (Figure 1C source data)","[1]; conc 0.1 μM, duplicates",14.953%
same,"inhibition rate, Hs-KMO cellular assay (Figure 1C source data)","[1]; conc 0.3 μM, duplicates",36.860%
same,"inhibition rate, Hs-KMO cellular assay (Figure 1C source data)","[1]; conc 1 μM, duplicates",55.900%
same,"inhibition rate, Hs-KMO cellular assay (Figure 1C source data)","[1]; conc 3 μM, duplicates",85.656%
same,"inhibition rate, Hs-KMO cellular assay (Figure 1C source data)","[1]; conc 10 μM, duplicates",99.963%
same,"inhibition rate, Hs-KMO cellular assay (Figure 1C source data)","[1]; conc 30 μM, duplicates",103.556%
same,inhibition at 0.03 µM,"[2]; HEK293, conc 0.03 μM, duplicates, read-out: inhibition rate, Rat-KMO cellular assay (Figure 1D source data)",4.96%
same,inhibition at 0.1 µM,"[2]; HEK293, conc 0.1 μM, duplicates, read-out: inhibition rate, Rat-KMO cellular assay (Figure 1D source data)",0.969%
same,inhibition at 0.3 µM,"[2]; HEK293, conc 0.3 μM, duplicates, read-out: inhibition rate, Rat-KMO cellular assay (Figure 1D source data)",4.27%
same,inhibition at 3 µM,"[2]; HEK293, conc 3 μM, duplicates, read-out: inhibition rate, Rat-KMO cellular assay (Figure 1D source data)",20.1%
same,inhibition at 10 µM,"[2]; HEK293, conc 10 μM, duplicates, read-out: inhibition rate, Rat-KMO cellular assay (Figure 1D source data)",58.4%
same,inhibition at 30 µM,"[2]; HEK293, conc 30 μM, duplicates, read-out: inhibition rate, Rat-KMO cellular assay (Figure 1D source data)",87.7%
same,IC50,"[2]; HEK293 cells expressing rat KMO, LC/MS",7300 nM
same,"inhibition rate, Rat-KMO cellular assay (Figure 1D source data)","[2]; conc 0.03 μM, duplicates",3.155%
same,"inhibition rate, Rat-KMO cellular assay (Figure 1D source data)","[2]; conc 0.1 μM, duplicates",1.853%
same,"inhibition rate, Rat-KMO cellular assay (Figure 1D source data)","[2]; conc 0.3 μM, duplicates",6.904%
same,"inhibition rate, Rat-KMO cellular assay (Figure 1D source data)","[2]; conc 3 μM, duplicates",21.339%
same,"inhibition rate, Rat-KMO cellular assay (Figure 1D source data)","[2]; conc 10 μM, duplicates",59.197%
same,"inhibition rate, Rat-KMO cellular assay (Figure 1D source data)","[2]; conc 30 μM, duplicates",87.499%
